The target in assay [1] is T1, FAK (Homo sapiens, UniProt Q05397). In words: ADP-Glo Kinase Assay, FAK. The arrangement: purchased Promega V1971. The settings on record: ADP-Glo Kinase Assay Kit. The assay is classed as biochemical. How it is done: (§1) Briefly, a kinase test was performed and quantified according to the manufacturer's instructions after treating the adamantane derivative compound of the present invention by using the ADP-Glo™ Kinase Assay Kit (FAK, Promega, V1971; Pyk2, Promega, V4083; InsR, Promega, V9401) containing each kinase of Promega.

Assay [2] deals with T2, InsR (Homo sapiens, UniProt P06213).
T2 construct: purchased Promega V9401
In words: ADP-Glo Kinase Assay, InsR. The settings on record: ADP-Glo Kinase Assay Kit. The assay is classed as biochemical. How it is done:
as §1

Assay [3] has as its target T3, Pyk2 (Homo sapiens, UniProt Q14289).
T3 construct: purchased Promega V4083
In words: ADP-Glo Kinase Assay, Pyk2. Type of assay: biochemical. Particulars: ADP-Glo Kinase Assay Kit. The protocol:
as §1

The target in assay [4] is T1, FAK. As to the kind of experiment: FAK [pY397] ELISA in MDA-MB-231 cells. The assay is classed as cell-based. Set-up: endogenous in cells; host or cells: MDA-MB-231. The settings on record: MDA-MB-231, treated for one hour, Table 2; read-out: FAK inhibitory activity (IC50). How it is done:
Briefly, an enzyme-linked immunosorbent assay test was performed according to the manufacturer's instructions by using the FAK (Phospho) [pY397] Human ELISA Kit (Thermo Fisher Scientific, KH00441) after dispensing 1×10^6 MDA-MB-231 cells into each well of a 6-well plate, inducing cell stabilization for 24 hours, and treating each compound at different concentrations (o, 1, 5, 10, 50, 100, 500, 1000 nM) for one hour.

IC50 data for 20 compounds are collected here from patent publication US12590070B2, “Adamantane derivatives as inhibitors of focal adhesion kinase” (SAMJIN PHARMACEUTICAL CO., LTD., priority 2019, dated 2026).

T1 sequence (Q05397 whole entry): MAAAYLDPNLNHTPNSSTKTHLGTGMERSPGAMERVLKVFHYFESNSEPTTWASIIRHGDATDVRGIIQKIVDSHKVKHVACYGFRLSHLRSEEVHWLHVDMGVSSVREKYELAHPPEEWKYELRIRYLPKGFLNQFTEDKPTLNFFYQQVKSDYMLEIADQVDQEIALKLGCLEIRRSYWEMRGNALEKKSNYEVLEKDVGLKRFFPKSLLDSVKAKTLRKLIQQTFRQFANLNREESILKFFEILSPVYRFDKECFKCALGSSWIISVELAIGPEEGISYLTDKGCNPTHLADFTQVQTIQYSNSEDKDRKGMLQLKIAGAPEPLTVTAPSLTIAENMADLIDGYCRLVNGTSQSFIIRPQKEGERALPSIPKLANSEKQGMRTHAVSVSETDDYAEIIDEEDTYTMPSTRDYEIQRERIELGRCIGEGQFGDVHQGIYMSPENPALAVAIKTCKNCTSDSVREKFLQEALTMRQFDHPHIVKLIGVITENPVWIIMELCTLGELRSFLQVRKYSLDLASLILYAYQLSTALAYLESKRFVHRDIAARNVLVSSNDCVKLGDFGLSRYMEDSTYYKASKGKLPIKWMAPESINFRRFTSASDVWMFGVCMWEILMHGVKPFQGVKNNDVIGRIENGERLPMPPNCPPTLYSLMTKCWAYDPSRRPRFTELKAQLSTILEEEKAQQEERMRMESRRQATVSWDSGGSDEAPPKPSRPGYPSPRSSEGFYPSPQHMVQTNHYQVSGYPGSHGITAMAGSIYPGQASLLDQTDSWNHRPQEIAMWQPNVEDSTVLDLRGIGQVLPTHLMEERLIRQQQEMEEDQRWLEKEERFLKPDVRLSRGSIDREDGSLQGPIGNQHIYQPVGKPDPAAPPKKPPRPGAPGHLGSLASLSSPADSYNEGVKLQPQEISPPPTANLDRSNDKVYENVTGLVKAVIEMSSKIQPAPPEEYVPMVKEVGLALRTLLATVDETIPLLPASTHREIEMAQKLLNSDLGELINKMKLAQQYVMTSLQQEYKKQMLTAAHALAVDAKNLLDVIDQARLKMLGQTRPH
T3 sequence (Q14289 whole entry): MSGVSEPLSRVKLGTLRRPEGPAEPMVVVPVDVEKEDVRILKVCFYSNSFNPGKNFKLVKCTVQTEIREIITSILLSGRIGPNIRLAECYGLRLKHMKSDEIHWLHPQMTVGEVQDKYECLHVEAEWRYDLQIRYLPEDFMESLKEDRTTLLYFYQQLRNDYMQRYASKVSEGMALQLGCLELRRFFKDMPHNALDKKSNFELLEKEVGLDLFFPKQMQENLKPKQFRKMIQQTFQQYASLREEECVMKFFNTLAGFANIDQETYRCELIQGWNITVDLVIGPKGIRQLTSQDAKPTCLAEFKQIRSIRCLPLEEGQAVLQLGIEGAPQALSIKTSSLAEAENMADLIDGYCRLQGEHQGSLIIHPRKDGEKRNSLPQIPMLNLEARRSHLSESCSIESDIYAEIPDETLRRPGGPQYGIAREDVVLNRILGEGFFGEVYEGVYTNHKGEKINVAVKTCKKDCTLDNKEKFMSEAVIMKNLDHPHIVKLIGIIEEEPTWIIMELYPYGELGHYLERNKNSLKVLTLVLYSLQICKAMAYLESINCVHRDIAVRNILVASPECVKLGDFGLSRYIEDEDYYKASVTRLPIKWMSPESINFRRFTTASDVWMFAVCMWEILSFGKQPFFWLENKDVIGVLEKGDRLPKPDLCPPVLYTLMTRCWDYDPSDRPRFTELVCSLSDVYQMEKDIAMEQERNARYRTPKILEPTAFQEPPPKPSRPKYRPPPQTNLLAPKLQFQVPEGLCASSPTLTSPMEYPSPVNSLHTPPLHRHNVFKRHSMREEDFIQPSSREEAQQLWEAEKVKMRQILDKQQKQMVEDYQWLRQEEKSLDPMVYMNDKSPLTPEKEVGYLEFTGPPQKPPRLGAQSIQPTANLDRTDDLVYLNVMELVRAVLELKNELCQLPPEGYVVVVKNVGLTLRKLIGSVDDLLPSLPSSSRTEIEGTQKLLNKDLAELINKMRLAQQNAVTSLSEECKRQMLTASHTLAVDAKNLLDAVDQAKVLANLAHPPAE
T2 sequence (P06213 28-1382): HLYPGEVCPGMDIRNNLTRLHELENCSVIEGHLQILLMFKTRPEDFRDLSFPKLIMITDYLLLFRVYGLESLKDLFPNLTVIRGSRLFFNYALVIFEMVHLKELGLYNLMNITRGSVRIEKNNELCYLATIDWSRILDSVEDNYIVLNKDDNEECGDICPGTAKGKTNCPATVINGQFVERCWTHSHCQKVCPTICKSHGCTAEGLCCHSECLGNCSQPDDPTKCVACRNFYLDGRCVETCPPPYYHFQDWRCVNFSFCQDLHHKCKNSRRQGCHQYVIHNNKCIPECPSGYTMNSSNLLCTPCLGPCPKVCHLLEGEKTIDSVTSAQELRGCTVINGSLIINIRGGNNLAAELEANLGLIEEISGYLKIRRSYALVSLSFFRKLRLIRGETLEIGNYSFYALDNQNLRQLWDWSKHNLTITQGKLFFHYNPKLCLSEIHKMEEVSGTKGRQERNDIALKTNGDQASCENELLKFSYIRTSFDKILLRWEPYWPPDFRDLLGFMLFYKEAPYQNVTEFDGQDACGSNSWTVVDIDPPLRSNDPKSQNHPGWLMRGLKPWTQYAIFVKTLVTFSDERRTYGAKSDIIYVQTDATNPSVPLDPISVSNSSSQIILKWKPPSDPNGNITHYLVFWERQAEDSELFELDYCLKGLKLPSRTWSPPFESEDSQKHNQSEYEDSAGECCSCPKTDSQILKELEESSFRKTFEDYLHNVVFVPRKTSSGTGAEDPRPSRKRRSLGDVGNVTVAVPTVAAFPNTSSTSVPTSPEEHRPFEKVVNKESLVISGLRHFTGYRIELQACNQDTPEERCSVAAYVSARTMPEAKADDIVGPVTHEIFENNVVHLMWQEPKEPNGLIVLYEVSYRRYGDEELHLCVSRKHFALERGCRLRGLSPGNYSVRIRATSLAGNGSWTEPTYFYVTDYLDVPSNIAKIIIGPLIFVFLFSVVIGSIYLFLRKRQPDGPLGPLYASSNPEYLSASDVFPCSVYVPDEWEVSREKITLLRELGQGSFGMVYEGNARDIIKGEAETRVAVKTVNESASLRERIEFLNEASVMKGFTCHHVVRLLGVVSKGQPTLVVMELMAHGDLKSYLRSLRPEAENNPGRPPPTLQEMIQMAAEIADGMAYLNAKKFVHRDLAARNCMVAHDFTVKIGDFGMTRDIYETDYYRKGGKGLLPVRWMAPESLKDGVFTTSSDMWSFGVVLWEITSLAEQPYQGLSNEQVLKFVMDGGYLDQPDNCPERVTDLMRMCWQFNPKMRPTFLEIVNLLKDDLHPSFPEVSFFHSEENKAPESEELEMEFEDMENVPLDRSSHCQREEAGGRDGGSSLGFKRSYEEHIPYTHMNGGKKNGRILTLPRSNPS

Compound `CNC(=O)c1cccc(C)c1Nc1nc(Nc2ccc(N3CCN([C@H]4C5CC6CC4C[C@](C(=O)O)(C6)C5)CC3)cc2OC)ncc1C(F)(F)F` [Compound 40, (cis)-4-(4-(3-methoxy-4-((4-((2-methyl-6-(methylcarbamoyl)phenyl)amino)-5-(trifluoromethyl)pyrimidin-2-yl)amino)phenyl)piperazin-1-yl) adamantan-1-carboxylic acid] yielded an IC50 in assay [1] of 58.3 nM.
Take `CNC(=O)c1cccc(C)c1Nc1nc(Nc2ccc(C3CCN([C@H]4C5CC6CC4C[C@@](O)(C6)C5)CC3)cc2OC)ncc1C(F)(F)F` [Compound 33, 2-((2-((4-(1-((cis)-5-hydroxyadamantan-2-yl)piperidin-4-yl)-2-methoxyphenyl)amino)-5-(trifluoromethyl)pyrimidin-4-yl)amino)-N,3-dimethylbenzamide]: the IC50 in assay [2] is 2050 nM; in assay [3], 101 nM.
For `CNC(=O)c1cccc(C)c1Nc1nc(Nc2ccc(O[C@]34CC5CC(C3)[C@@H](N3CC[C@H](NC(C)=O)C3)C(C5)C4)cc2OC)ncc1C(F)(F)F` [Compound 14, 2-((2-((4-(((trans)-4-((S)-3-acetamidopyrrolidin-1-yl)adamantan-1-yl)oxy)-2-methoxyphenyl)amino)-5-(trifluoromethyl)pyrimidin-4-yl)amino)-N,3-dimethylbenzamide], the IC50 in assay [1] is 57 nM.
As to `CNC(=O)c1cccc(C)c1Nc1nc(Nc2ccc(NC3C4CC5CC3CC(C(=O)N3CCOCC3)(C5)C4)cc2OC)ncc1C(F)(F)F` (stereo not shown) [Compound 22, 2-((2-((2-methoxy-4-((5-(morpholin-4-carbonyl)adamantan-2-yl)amino)phenyl)amino)-5-(trifluoromethyl)pyrimidin-4-yl)amino)-N,3-dimethylbenzamide], the IC50 in assay [1] is 57 nM.
As for `CNC(=O)c1cccc(C)c1Nc1nc(Nc2ccc(NC3C4CC5CC(C4)CC3C5)cc2OC)ncc1C(F)(F)F` (stereo not shown) [Compound 2, 2-((2-((4-(adamantan-2-ylamino)-2-methoxyphenyl)amino)-5-(trifluoromethyl)pyrimidin-4-yl)amino)-N,3-dimethylbenzamide], the results for the IC50 in assay [1], in assay [4] and in assay [2] were 206 nM, 111 nM and over 10000 nM, respectively.
`CNC(=O)c1cccc(C)c1Nc1nc(Nc2ccc(OC3CCN(C4C5CC6CC(C5)CC4C6)CC3)cc2OC)ncc1C(F)(F)F` (stereo not shown) [Compound 9, 2-((2-((4-((1-(adamantan-2-yl)piperidin-4-yl)oxy)-2-methoxyphenyl)amino)-5-(trifluoromethyl)pyrimidin-4-yl)amino)-N,3-dimethylbenzamide]: the values for the half-maximal inhibitory concentration (IC50) in assay [1] and in assay [2] were 98.1 nM and over 10000 nM, respectively.
As for `CNC(=O)c1cccc(C)c1Nc1nc(Nc2ccc(N3CCN([C@H]4C5CC6CC4C[C@@](O)(C6)C5)CC3)cc2OC)ncc1C(F)(F)F` [Compound 5, 2-((2-((4-(4-((cis)-5-hydroxyadamantan-2-yl)piperazin-1-yl)-2-methoxyphenyl)amino)-5-(trifluoromethyl)pyrimidin-4-yl)amino)-N,3-dimethylbenzamide], the IC50 is 69.9 nM in assay [1], 32 nM in assay [4] and 4680 nM in assay [2].
In the case of `CNC(=O)c1cccc(C)c1Nc1nc(Nc2ccc(NC(=O)[C@]34CC5CC(C3)[C@@H](N3CC[C@H](N)C3)C(C5)C4)cc2OC)ncc1C(F)(F)F` [Compound 30, (trans)-4-((S)-3-aminopyrrolidin-1-yl)-N-(3-methoxy-4-((4-((2-methyl-6-(methylcarbamoyl)phenyl)amino)-5-(trifluoromethyl)pyrimidin-2-yl)amino)phenyl) adamantan-1-carboxamide], the IC50 in assay [2] worked out at 3800 nM; in assay [3], 18.2 nM.
For the compound `CNC(=O)c1cccc(C)c1Nc1nc(Nc2ccc(OC3C4CC5CC3CC(C(=O)N3CCOCC3)(C5)C4)cc2OC)ncc1C(F)(F)F` (stereo not shown) [Compound 19, 2-((2-((2-methoxy-4-((5-(morpholin-4-carbonyl)adamantan-2-yl)oxy)phenyl)amino)-5-(trifluoromethyl)pyrimidin-4-yl)amino)-N,3-dimethylbenzamide], the IC50 in assay [1] worked out at 127 nM.
On to `CNC(=O)c1cccc(C)c1Nc1nc(Nc2ccc(OC3C4CC5CC3CC(C(=O)N3CCN(C)CC3)(C5)C4)cc2OC)ncc1C(F)(F)F` (stereo not shown) [Compound 20, 2-((2-((2-methoxy-4-((5-(4-methylpiperazin-1-carbonyl)adamantan-2-yl)oxy)phenyl)amino)-5-(trifluoromethyl)pyrimidin-4-yl)amino)-N,3-dimethylbenzamide], for which the figures for the IC50 in assay [1] and in assay [4] were 98.9 nM and 153 nM, respectively.
As to `CNC(=O)c1cccc(C)c1Nc1nc(Nc2ccc(OC3C4CC5CC3CC(C(=O)NC)(C5)C4)cc2OC)ncc1C(F)(F)F` (stereo not shown) [Compound 18, 4-(3-methoxy-4-((4-((2-methyl-6-(methylcarbamoyl)phenyl)amino)-5-(trifluoromethyl)pyrimidin-2-yl)amino)phenoxy)-N-methyladamantan-1-carboxamide], the IC50 in assay [1] is 92.9 nM.
In turn, `CNC(=O)c1cccc(C)c1Nc1nc(Nc2ccc(N3CCN([C@H]4C5CC6CC4C[C@@](O)(C6)C5)CC3)cc2OC)ncc1Cl` [Compound 36, 2-((5-chloro-2-((4-(4-((trans)-5-hydroxyadamantan-2-yl)piperazin-1-yl)-2-methoxyphenyl)amino)-pyrimidin-4-yl)amino)-N,3-dimethylbenzamide] displayed an IC50 in assay [1] of 61.4 nM.
As to `CNC(=O)c1cccc(C)c1Nc1nc(Nc2ccc(C3CCN([C@H]4C5CC6CC4C[C@](O)(C6)C5)CC3)cc2OC)ncc1C(F)(F)F` [Compound 32, 2-((2-((4-(1-((trans)-5-hydroxyadamantan-2-yl)piperidin-4-yl)-2-methoxyphenyl)amino)-5-(trifluoromethyl)pyrimidin-4-yl)amino)-N,3-dimethylbenzamide], the IC50 amounted to 2150 nM in assay [2] and 154 nM in assay [3].
Consider `CNC(=O)c1cccc(C)c1Nc1nc(Nc2ccc(N3CCN([C@H]4C5CC6CC4C[C@@](C(=O)OC)(C6)C5)CC3)cc2OC)ncc1C(F)(F)F` [Compound 38, methyl (cis)-4-(4-(3-methoxy-4-((4-((2-methyl-6-(methylcarbamoyl)phenyl)amino)-5-(trifluoromethyl)pyrimidin-2-yl)amino)phenyl)piperazin-1-yl) adamantan-1-carboxylate], for which the IC50 in assay [1] is 70 nM.
`CNC(=O)c1cccc(C)c1Nc1nc(Nc2ccc(N3CCN([C@H]4C5CC6CC4C[C@](C(=O)OC)(C6)C5)CC3)cc2OC)ncc1C(F)(F)F` [Compound 37, methyl (trans)-4-(4-(3-methoxy-4-((4-((2-methyl-6-(methylcarbamoyl)phenyl)amino)-5-(trifluoromethyl)pyrimidin-2-yl)amino)phenyl)piperazin-1-yl) adamantan-1-carboxylate] came in with an IC50 in assay [1] of 43.6 nM.
On to `CNC(=O)c1cccc(C)c1Nc1nc(Nc2ccc(NC(=O)[C@]34CC5CC(C3)[C@H](N3CC[C@H](NC(C)=O)C3)C(C5)C4)cc2OC)ncc1C(F)(F)F` [Compound 28, (cis)-4-((S)-3-acetamidopyrrolidin-1-yl)-N-(3-methoxy-4-((4-((2-methyl-6-(methylcarbamoyl)phenyl)amino)-5-(trifluoromethyl)pyrimidin-2-yl)amino)phenyl) adamantan-1-carboxamide], for which the figures for the IC50 in assay [1], in assay [2] and in assay [3] were 29 nM, over 10000 nM and 64.5 nM, respectively.
As for `COc1cc(C2CCN([C@H]3C4CC5CC3C[C@](O)(C5)C4)CC2)ccc1Nc1ncc(C(F)(F)F)c(Nc2c(C)cccc2C(N)=O)n1` [Compound 35, 2-((2-((4-(1-((cis)-5-hydroxyadamantan-2-yl)piperidin-4-yl)-2-methoxyphenyl)amino)-5-(trifluoromethyl)pyrimidin-4-yl)amino)-3-methylbenzamide], the IC50 in assay [2] is 1440 nM; in assay [3], 418 nM.
Regarding `CNC(=O)c1cccc(C)c1Nc1nc(Nc2ccc(NC3C4CC5CC3CC(C(=O)N3CCN(C)CC3)(C5)C4)cc2OC)ncc1C(F)(F)F` (stereo not shown) [Compound 23, 2-((2-((2-methoxy-4-((5-(4-methylpiperazin-1-carbonyl)adamantan-2-yl)amino)phenyl)amino)-5-(trifluoromethyl)pyrimidin-4-yl)amino)-N,3-dimethylbenzamide], the IC50 was 77.5 nM in assay [1] and 234 nM in assay [4].
As for `COc1cc(C2CCN([C@H]3C4CC5CC3C[C@](O)(C5)C4)CC2)ccc1Nc1ncc(C(F)(F)F)c(Nc2c(C)cccc2C(N)=O)n1` [Compound 34, 2-((2-((4-(1-((trans)-5-hydroxyadamantan-2-yl)piperidin-4-yl)-2-methoxyphenyl)amino)-5-(trifluoromethyl)pyrimidin-4-yl)amino)-3-methylbenzamide], the IC50 in assay [2] amounted to 1640 nM; in assay [3], 427 nM.
Compound `CNC(=O)c1cccc(C)c1Nc1nc(Nc2ccc(N3CCN([C@H]4C5CC6CC4C[C@](C(=O)O)(C6)C5)CC3)cc2OC)ncc1C(F)(F)F` [Compound 39, (trans)-4-(4-(3-methoxy-4-((4-((2-methyl-6-(methylcarbamoyl)phenyl)amino)-5-(trifluoromethyl)pyrimidin-2-yl)amino)phenyl)piperazin-1-yl) adamantan-1-carboxylic acid] came in with an IC50 in assay [1] of 58 nM.
